Like-named read-outs stand apart in the source and are kept apart here.
Key:
5-HT2C receptor = 5-HT2C receptor (Homo sapiens (Human), UniProt P28335); experiment: IP accumulation assay, 5-HT2C; type: cell-based; details: IP accumulation, HEK293 cells, 2 h at RT; read-out: EC50 5HT2C
Method: (§1) HEK293 cells expressing recombinant 5-HT2 receptors were added to sterile poly-D-lysine-coated 96-well microtiter plates (35,000 cells/well) and labeled with 0.6 μCi/well of [^3H]inositol in myoinositol-free DMEM for 18 h. Unincorporated [^3H]inositol was removed by aspiration and replaced with fresh myoinositol-free DMEM supplemented with LiCl (10 mM final) and pargyline (10 μM final). Serially diluted test compounds were then added and incubation was conducted for 2 h at 37° C. (5-HT2B, and 5-HT2A) and RT (5-HT2C). Incubations were then terminated by lysing cells with the addition of ice-cold 0.1 M formic acid followed by freezing at −80° C. After thawing, total [^3H]inositol phosphates were resolved from [^3H]inositol using AG1-X8 ion exchange resin (Bio-Rad) and [^3H]inositol phosphates were measured by scintillation counting using a Perkin Elmer TopCount® scintillation counter. All EC50 determinations were performed using 10 different concentrations and triplicate determinations were made at each test concentration.

5-HT2B receptor = 5-HT2B receptor (Homo sapiens (Human), UniProt P41595); experiment: IP accumulation assay, 5-HT2B; type: cell-based; details: IP accumulation, HEK293 cells, 2 h at 37° C.; read-out: EC50 5HT2B
Method: as §1

5-HT2A receptor [1] = target: T1, 5-HT2A receptor (Homo sapiens (Human), UniProt P28223); experiment: IP accumulation assay, 5-HT2A; type: cell-based
Method: as §1

5-HT2A receptor [2] = target: T1, 5-HT2A receptor; experiment: DOI radioligand binding assay, 5-HT2A; details: [125I]DOI competition, HEK293 cell membranes; read-out: DOI Binding 5HT2A
Method: For the compounds of Table A, the following procedure was used. HEK293 cells stably expressing recombinant 5-HT2 receptors were harvested, suspended in ice-cold phosphate buffered saline, pH 7.4 (PBS), and then centrifuged at 48,000 g for 20 min at 4° C. The resulting cell pellet was then re-suspended in wash buffer containing 20 mM HEPES, pH 7.4 and 0.1 mM EDTA, homogenized on ice using a Brinkman Polytron, and centrifuged (48,000 g for 20 min at 4° C.). The pellet was then resuspended in 20 mM HEPES, pH 7.4, homogenized on ice, and centrifuged (48,000 g for 20 min at 4° C.). Crude membrane pellets were stored at −80° C. until used for radioligand binding assays.
For the compounds of Table A, the following procedure was used. […] Experiments comprised addition of 95 μL of assay buffer (20 mM HEPES, pH 7.4, 10 mM MgCl2), 50 μL of membranes, 50 μL of radioligand stock, and 5 μL of test compound diluted in assay buffer to 96-well microtiter plates, which were then incubated for 1 h at room temperature. Assay incubations were terminated by rapid filtration through PerkinElmer F/C filtration plates under reduced pressure using a 96-well Packard filtration apparatus, followed by washing three times with ice cold assay buffer. Plates were then dried at 45° C. for a minimum of 2 h. Finally, 25 μL of BetaScint™ scintillation cocktail was added to each well and the plates were counted in a Packard TopCount® scintillation counter. In each competition study, test compounds were dosed at ten concentrations with triplicate determinations at each test concentration.

[3] = IP accumulation, HEK293 cells, 2 h at 37° C., read-out: EC50 5HT2A

5-HT2B receptor, sequence (P41595 whole entry): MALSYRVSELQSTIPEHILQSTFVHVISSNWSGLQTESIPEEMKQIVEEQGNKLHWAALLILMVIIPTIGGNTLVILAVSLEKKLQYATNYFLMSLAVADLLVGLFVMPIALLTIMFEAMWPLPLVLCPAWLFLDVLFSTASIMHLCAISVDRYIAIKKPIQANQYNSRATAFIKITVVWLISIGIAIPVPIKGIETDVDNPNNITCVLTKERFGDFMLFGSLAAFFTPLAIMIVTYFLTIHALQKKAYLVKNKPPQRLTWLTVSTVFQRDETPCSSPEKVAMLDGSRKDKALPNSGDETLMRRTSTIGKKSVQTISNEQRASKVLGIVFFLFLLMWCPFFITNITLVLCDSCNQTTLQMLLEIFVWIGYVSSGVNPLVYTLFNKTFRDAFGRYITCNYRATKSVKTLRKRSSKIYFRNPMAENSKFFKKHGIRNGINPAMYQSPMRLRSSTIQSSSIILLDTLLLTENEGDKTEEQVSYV
5-HT2C receptor, sequence (P28335 33-458): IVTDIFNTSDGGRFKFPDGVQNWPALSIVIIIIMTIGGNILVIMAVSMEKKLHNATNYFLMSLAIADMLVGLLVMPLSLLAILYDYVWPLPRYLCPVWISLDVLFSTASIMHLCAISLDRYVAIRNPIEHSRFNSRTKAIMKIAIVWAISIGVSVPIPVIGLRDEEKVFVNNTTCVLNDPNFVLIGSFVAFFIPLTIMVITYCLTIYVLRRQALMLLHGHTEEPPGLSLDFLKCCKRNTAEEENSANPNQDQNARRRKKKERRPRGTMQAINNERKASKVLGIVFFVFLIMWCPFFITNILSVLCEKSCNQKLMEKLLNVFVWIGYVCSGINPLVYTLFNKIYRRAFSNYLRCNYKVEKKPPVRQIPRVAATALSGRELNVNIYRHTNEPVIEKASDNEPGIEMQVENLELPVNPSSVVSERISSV
T1 sequence (P28223 whole entry): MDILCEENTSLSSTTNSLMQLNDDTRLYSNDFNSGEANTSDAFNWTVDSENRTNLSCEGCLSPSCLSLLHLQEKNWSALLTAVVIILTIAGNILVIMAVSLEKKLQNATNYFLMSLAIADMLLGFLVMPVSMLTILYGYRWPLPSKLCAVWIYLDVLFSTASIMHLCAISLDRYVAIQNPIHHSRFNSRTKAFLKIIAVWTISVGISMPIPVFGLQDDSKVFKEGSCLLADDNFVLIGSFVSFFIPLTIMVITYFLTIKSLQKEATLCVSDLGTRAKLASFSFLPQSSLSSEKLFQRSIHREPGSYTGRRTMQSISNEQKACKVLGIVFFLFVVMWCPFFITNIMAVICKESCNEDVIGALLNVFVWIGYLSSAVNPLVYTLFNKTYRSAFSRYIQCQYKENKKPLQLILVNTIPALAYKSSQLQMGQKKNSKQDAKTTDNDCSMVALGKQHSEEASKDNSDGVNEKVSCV

| Structure (SMILES) | EC50 (5-HT2C receptor) [µM] | EC50 (5-HT2B receptor) [µM] | EC50 (5-HT2A receptor [1]) [µM] | EC50 (5-HT2A receptor [1]; [3]) [µM] | Ki (5-HT2A receptor [2]) [µM] |
| --- | --- | --- | --- | --- | --- |
| c1cc(-c2ccc3c(c2)OCO3)c2c(n1)N1CCNC[C@H]1CC2 [Compound 101, (R)-4-(benzo[d][1,3]dioxol-5-yl)-6,6a,7,8,9,10-hexahydro-5H-pyrazino[1,2-a][1,8]naphthyridine] | 7.51 | ≥ 100 | ≥ 100 |  |  |
| CNC(=O)c1ccnc2c1CC[C@@H]1CNCCN21 [Compound 102, (R)-N-methyl-6,6a,7,8,9,10-hexahydro-5H-pyrazino[1,2-a][1,8]naphthyridine-4-carboxamide] | 100 | ≥ 100 | ≥ 100 |  |  |
| O=C(Nc1ccnc2c1CC[C@@H]1CNCCN21)c1ccccc1Cl [Compound 104, (R)-2-chloro-N-(6,6a,7,8,9,10-hexahydro-5H-pyrazino[1,2-a][1,8]naphthyridin-4-yl)benzamide] | 100 | ≥ 100 | ≥ 100 |  |  |
| FC(F)(F)Oc1cccc(-c2ccnc3c2CC[C@@H]2CNCCN32)c1 [Compound 105, (R)-4-(3-(trifluoromethoxy)phenyl)-6,6a,7,8,9,10-hexahydro-5H-pyrazino[1,2-a][1,8]naphthyridine] | 3.07 | ≥ 100 |  | ≥ 100 |  |
| CCCC(C)c1ccnc2c1CC[C@@H]1CNCCN21 (stereo partly drawn) [Compound 109, (6aR)-4-(pentan-2-yl)-6,6a,7,8,9,10-hexahydro-5H-pyrazino[1,2-a][1,8]naphthyridine] |  |  |  |  | 0.0259 |
| CCOC(=O)Nc1ccnc2c1CC[C@@H]1CNCCN21 [Compound 123, (R)-ethyl(6,6a,7,8,9,10-hexahydro-5H-pyrazino[1,2-a][1,8]naphthyridin-4-yl)carbamate] | 0.898 | ≥ 100 | ≥ 100 |  |  |
| O=C(Cc1ccccc1)Nc1ccnc2c1CC[C@@H]1CNCCN21 [Compound 124, (R)-N-(6,6a,7,8,9,10-hexahydro-5H-pyrazino[1,2-a][1,8]naphthyridin-4-yl)-2-phenylacetamide] | 3.66 | ≥ 100 | ≥ 100 |  |  |
| CCCC(=O)Nc1ccnc2c1CC[C@@H]1CNCCN21 [Compound 125, (R)-N-(6,6a,7,8,9,10-hexahydro-5H-pyrazino[1,2-a][1,8]naphthyridin-4-yl)butyramide] | 100 | ≥ 100 | ≥ 100 |  |  |
| c1cc(C2CCCCC2)c2c(n1)N1CCNC[C@H]1CC2 [Compound 127, (R)-4-cyclohexyl-6,6a,7,8,9,10-hexahydro-5H-pyrazino[1,2-a][1,8]naphthyridine] | 1.51 | 0.919 | 9.07 |  |  |
| O=C(Nc1ccnc2c1CC[C@@H]1CNCCN21)N1CCCC1 [Compound 131, (R)-N-(6,6a,7,8,9,10-hexahydro-5H-pyrazino[1,2-a][1,8]naphthyridin-4-yl)pyrrolidine-1-carboxamide] | 100 | ≥ 100 | ≥ 100 |  |  |
| FC(F)(F)c1ccccc1-c1ccnc2c1CC[C@@H]1CNCCN21 [Compound 134, (R)-(2-(trifluoromethyl)phenyl)-6,6a,7,8,9,10-hexahydro-5H-pyrazino[1,2-a][1,8]naphthyridine] | 5.61 | 1.73 | ≥ 100 |  |  |
| COc1ccc(-c2ccnc3c2CC[C@@H]2CNCCN32)cc1 [Compound 135, (R)-4-(4-methoxyphenyl)-6,6a,7,8,9,10-hexahydro-5H-pyrazino[1,2-a][1,8]naphthyridine] | 5.41 | ≥ 100 | ≥ 100 |  |  |
| O=C(Nc1ccnc2c1CC[C@@H]1CNCCN21)c1cccc(F)c1F [Compound 138, (R)-2,3-difluoro-N-(6,6a,7,8,9,10-hexahydro-5H-pyrazino[1,2-a][1,8]naphthyridin-4-yl)benzamide] | 5.82 | ≥ 100 |  | ≥ 100 |  |
| O=C(Nc1ccnc2c1CC[C@@H]1CNCCN21)c1ccccc1 [Compound 139, (R)-N-(6,6a,7,8,9,10-hexahydro-5H-pyrazino[1,2-a][1,8]naphthyridin-4-yl)benzamide] | 100 | ≥ 100 | ≥ 100 |  |  |

Source: US10836764B2, “5-HT2C receptor agonists and compositions and methods of use” (Arena Pharmaceuticals, Inc., priority 2016, dated 2020)
